Measurements reported in US6458781B1, “Substituted diarylalkyl amides as calcium channel antagonists” (priority 1998, dated 2002).
Where a name gives a salt, the structure may show the parent alone. Read-outs that look alike come from different tables or passages of the source.

What was measured:
[1] = target: T1, L-type calcium channels in A10 cells (Rattus norvegicus, UniProt P22002); assay: L-type Ca2+ channel blocking potency in A10 cells (FLIPR); assay type: cell-based; settings: read-out: FLPA10 IC50
T1 construct: which endogenously expresses L-type calcium channels; host or cells: A10 rat embryonic thoracic aorta smooth muscle cells
Protocol: Measurement of L-type Ca^2+ Channel Blocking Potencies of Compounds in A10 Cells
Calcium flux through voltage-sensitive calcium channels was assessed by time-resolved monitoring of the fluorescence of pre-loaded calcium-sensitive dyes using FLIPR, a fluorescent image plate reader (Molecular Devices Co.). The A10 smooth muscle cell line derived from embryonic thoracic aorta of the DBIX rat (ATCC, CRL-1476) which endogenously expresses L-type calcium channels. The growth media for A10 cells was Ham's F12/DME high glucose (Irvine Scientific, 9052), supplemented with 20% fetal bovine serum (HyClone Labs, A-1115-L), and 1% each of L-glutamine and antibiotic-antimycotic (same source as above).
Cells were grown to confluency and replated on black-sided 96-well plates (Costar, 3603) for use in FLIPR. Two days after replating, growth media was removed and cells were loaded at 37° C. with 100 μL media containing 1 μM Oregon Green 488 Bapta-1 dye (Molecular Probes, O-6807) for 1 to 3 hours. The dye-containing media was then washed away with buffer (composition in mM: 1.25 CaCl2, 1.2 MgSO4, 11 glucose, 10 HEPES, 3.0 KCl, 137.0 NaCl, pH 7.4 with Tris base) in a Denley Cellwash (Labsystems, CW018B). The residual buffer volume was adjusted to 50 μL. A 5 minute drug-pre-incubation period at 35° C. was initiated when 50 μL of drug-containing buffer was pipetted into the cell plate with the 96-well pipettor integrated in the FLIPR apparatus. Fluorescent counts were monitored at 20 second intervals for 360 seconds, beginning 60 seconds prior to the delivery of drug-containing buffer. Following drug addition, 100 μL aliquots of a high K^+, depolarizing stimulus (composition in mM: 1.25 CaCl2, 1.2 MgSO4, 11 glucose, 10 HEPES, 140.0 KCl, pH 7.4 with Tris base) were added to each well, and fluorescence was monitored at 1 second intervals for 120 seconds beginning 10 seconds prior to the stimulus addition. CCD camera exposure time was 0.4 seconds, laser excitation was at 488 nm with a power of 0.2-0.5W, and a 510 to 560 nm bandpass interference filter preceded the camera.
Data was analyzed as a summation of fluorescent counts above basal during the stimulation period (an approximation of area under the curve), after normalizing the data with a spatial uniformity correction (for variations in laser illumination and cell density) and a negative control correction (zero calcium increase defined as the fluorescence reading in the presence of saturating pharmacologic block of the respective calcium channel). Drug effects were expressed as percent inhibition of fluorescence from an average of 8 K^+-stimulated wells which were pre-treated in the drug incubation period with buffer only. In the A10 cells, the pharmacologic agent used to define zero calcium influx was nitrendipine (RBI, N-144) at a final concentration of 1.0×10^−6 M.

[2] = target: T2, N-type calcium channels in IMR-32 cells (Homo sapiens, UniProt Q00975); assay: N-type Ca2+ channel blocking potency in IMR-32 cells using Indo-1; assay type: cell-based; settings: for IC50: IMR-32 cells, estimated from two data points, read-out: IMR32 IC50 (estimated IC50 values based on two data points); for inhibition at 1 µM / inhibition at 10 µM: IMR-32, IMR-32 cells; for inhibition at 1 µM: read-out: IMR32 % blockage at 1 μM; for inhibition at 10 µM: read-out: IMR32 % blockage at 10 μM
T2 construct: host or cells: IMR-32 cells differentiated with dibutyryl cAMP and bromodeoxyuridine
Method in brief: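 Differentiated IMR-32 cells loaded with Indo-1 AM were preincubated with compound and 5 μM nitrendipine (L-type block) for 10 min at 30° C in HEPES/Tris pH 7.4 HBSS with 0.5% BSA. Cells were depolarized with KCl/CaCl2, and the 400/490 nm emission ratio rise over basal was measured. IC50 came from a four-parameter logistic fit.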

[3] = test system: sound-induced tonic convulsions in DBA/2 mice; assay: Audiogenic seizure model in DBA/2 mice; assay type: in vivo; settings: Mus musculus, protected/tested, read-out: Number of Mice Protected From Tonic Convulsions (converted); for responders at 30 mg/kg: 30 mg/Kg IV; for responders at 10 mg/kg: 10 mg/Kg IV
Protocol: Audiogenic Seizure Model in DBA/2 Mice
A compound of the present invention was dissolved in water using 10% (weight/volume) Emulphor (GAF Corp., Wayne, N.J.) surfactant. Substances were administered by intravenous injection into the retro-orbital venous sinus of male mice (3-4 weeks old, Jackson Laboratories, Bar Harbour, Me.). All testing was preformed 15 minutes or 45 minutes after drug injection. Immediately before anticonvulsant testing, mice were placed upon a wire mesh, 4 inches square suspended from a steel rod. The square was slowly inverted through 180 degrees and mice observed for 30 seconds. Any mouse falling from the wire mesh was scored as ataxic.
Mice were placed into an enclosed acrylic plastic chamber (21 cm height, approximately 30 cm diameter) with a high-frequency speaker (4 cm diameter) in the center of the top lid. An audio signal generator (Protek model B-810) was used to produce a continuous sinusoidal tone that Was swept linearly in frequency between 8 kHz and 16 kHz once each 10 msec. The average sound pressure level (SPL) during stimulation was approximately 100 dB at the floor of the chamber. Mice were placed within the chamber and allowed to acclimatize for 1 minute. DBA/2 mice in the vehicle-treated group responded to the sound stimulus (applied until tonic extension occurred, or for a maximum of 60 sec) with a characteristic seizure sequence consisting of wild running followed by clonic seizures, and later by tonic extension, and finally by respiratory arrest and death in 80% or more of the mice. In vehicle-treated mice, the entire sequence of seizures to respiratory arrest lasts approximately 15-20 seconds.
The incidence of all the seizure phases in the drug-treated and vehicle-treated mice was recorded, and the occurrence of tonic seizures were used for calculating anticonvulsant ED50 values by probit analysis. Mice were used only once for testing at each time and dose point.

T1 sequence (P22002 whole entry): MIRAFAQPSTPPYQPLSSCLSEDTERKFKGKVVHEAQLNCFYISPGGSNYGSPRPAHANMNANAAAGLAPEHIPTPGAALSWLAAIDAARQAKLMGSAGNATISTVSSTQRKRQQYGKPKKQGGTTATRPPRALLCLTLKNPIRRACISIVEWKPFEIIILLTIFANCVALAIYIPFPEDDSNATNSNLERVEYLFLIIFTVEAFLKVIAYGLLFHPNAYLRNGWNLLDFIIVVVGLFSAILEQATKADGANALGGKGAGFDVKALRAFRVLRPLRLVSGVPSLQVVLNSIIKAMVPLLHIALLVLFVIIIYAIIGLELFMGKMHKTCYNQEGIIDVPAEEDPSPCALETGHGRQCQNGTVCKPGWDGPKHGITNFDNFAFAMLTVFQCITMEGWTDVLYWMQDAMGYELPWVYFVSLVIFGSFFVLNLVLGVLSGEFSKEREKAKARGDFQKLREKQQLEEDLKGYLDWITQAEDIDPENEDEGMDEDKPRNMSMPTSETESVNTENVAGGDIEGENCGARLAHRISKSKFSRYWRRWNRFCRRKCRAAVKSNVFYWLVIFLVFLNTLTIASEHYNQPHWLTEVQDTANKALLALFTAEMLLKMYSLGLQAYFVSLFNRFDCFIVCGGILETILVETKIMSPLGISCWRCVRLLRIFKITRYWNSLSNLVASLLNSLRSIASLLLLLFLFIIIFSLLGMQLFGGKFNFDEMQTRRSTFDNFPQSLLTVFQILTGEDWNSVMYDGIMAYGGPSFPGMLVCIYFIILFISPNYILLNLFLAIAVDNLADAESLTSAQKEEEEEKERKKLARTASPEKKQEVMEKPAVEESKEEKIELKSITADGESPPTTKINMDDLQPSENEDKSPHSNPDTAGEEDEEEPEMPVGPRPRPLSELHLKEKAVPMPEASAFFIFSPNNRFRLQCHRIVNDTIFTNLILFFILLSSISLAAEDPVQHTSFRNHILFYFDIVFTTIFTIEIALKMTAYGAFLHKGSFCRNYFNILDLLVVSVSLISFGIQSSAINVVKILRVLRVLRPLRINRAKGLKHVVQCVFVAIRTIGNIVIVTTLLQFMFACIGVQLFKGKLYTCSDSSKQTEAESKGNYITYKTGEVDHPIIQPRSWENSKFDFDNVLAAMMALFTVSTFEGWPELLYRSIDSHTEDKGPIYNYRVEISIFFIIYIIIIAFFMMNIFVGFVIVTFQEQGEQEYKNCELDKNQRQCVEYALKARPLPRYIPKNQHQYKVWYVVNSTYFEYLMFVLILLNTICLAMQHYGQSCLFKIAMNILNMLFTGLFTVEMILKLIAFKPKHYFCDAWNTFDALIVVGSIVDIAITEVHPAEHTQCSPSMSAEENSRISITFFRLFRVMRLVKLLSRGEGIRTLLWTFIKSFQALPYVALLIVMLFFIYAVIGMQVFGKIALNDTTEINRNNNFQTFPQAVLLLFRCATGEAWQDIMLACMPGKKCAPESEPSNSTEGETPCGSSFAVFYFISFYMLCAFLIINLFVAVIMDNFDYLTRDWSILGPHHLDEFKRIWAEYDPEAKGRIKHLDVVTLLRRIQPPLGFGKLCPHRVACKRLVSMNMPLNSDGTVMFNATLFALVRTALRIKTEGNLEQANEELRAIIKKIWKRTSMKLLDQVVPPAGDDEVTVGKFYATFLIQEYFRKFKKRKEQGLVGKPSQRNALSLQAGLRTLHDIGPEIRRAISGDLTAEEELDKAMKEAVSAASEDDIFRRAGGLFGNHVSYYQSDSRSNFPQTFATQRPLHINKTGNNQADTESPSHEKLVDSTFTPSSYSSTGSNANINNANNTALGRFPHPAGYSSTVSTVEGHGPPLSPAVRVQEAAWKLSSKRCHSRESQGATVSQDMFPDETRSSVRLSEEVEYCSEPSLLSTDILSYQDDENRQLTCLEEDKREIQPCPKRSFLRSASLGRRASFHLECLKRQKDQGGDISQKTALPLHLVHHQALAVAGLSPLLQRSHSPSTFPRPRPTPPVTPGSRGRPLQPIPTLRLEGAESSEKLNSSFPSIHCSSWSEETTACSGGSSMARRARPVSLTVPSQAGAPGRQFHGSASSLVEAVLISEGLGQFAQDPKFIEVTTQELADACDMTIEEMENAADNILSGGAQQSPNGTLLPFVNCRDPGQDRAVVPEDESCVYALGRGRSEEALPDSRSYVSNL
T1 sequence (P54290 25-944 partner limits assumed): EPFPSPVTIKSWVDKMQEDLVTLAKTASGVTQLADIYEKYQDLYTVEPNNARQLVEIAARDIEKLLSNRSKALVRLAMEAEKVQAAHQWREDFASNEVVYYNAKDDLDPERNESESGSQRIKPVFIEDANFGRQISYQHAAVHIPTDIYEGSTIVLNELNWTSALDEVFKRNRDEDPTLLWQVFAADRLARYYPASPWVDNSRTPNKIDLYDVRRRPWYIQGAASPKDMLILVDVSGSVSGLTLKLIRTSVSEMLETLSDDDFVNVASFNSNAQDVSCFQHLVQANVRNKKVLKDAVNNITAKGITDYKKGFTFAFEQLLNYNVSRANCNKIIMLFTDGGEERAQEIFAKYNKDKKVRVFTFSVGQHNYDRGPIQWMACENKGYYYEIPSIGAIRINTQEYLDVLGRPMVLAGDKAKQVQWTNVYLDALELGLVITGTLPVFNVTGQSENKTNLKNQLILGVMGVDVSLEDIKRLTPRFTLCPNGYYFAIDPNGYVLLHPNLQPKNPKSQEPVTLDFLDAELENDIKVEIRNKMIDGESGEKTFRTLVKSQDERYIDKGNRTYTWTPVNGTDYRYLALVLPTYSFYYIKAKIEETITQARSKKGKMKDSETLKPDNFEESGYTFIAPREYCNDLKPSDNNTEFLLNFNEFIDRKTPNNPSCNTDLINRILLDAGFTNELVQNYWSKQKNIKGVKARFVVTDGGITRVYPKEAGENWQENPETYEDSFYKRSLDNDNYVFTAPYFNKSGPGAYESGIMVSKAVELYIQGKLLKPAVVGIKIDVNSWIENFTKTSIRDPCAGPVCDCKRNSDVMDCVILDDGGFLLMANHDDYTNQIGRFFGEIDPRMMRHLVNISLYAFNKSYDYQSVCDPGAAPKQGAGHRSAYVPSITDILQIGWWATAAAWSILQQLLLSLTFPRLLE
T1 sequence (P54290 945-1091 partner limits assumed): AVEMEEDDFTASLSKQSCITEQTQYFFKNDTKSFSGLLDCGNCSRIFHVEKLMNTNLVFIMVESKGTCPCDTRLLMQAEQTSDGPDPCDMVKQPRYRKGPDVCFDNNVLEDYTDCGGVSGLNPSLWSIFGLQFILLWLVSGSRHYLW
T1 sequence (P54287 whole entry partner): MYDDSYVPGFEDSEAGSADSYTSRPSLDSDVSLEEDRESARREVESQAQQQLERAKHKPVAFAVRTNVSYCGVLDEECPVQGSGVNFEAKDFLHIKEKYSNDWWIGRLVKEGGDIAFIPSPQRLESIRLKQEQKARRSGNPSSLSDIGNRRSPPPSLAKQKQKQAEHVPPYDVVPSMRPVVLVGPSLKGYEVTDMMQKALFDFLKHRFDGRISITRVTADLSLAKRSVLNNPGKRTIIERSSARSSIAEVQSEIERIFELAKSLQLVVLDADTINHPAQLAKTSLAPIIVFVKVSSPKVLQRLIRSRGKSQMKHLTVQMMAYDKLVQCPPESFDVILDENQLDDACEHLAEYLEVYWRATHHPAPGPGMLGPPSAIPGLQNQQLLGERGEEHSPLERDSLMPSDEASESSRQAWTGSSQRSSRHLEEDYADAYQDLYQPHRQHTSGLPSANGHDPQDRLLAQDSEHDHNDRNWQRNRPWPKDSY

Structure (SMILES) | IC50 [1] | IC50 [2] | responders at 30 mg/kg ([3]; 0.25 h, 15 min posttreatment) | responders at 30 mg/kg ([3]; 0.75 h, 45 min posttreatment) | responders at 10 mg/kg ([3]; 0.25 h, 15 min posttreatment) | responders at 10 mg/kg ([3]; 0.75 h, 45 min posttreatment) | melting point | inhibition at 1 µM [2] | inhibition at 10 µM [2]
CC(C)C[C@H](NC1CCCCC1)C(=O)N1CCN(C(c2ccc(F)cc2)c2ccc(F)cc2)CC1 [Example 38, (S)-1-{4-[Bis-(4-fluoro-phenyl)-methyl]-piperazin-1-yl}-2-cyclohexylamino-4-methyl-pentan-1-one] | 610 nM | 1200 nM | 80% | 20% | – | – | – | – | –
CC(C)C[C@@H](C(=O)N1CCN(C(c2ccc(F)cc2)c2ccc(F)cc2)CC1)N(C)C1CCCCC1 [Example 40, (S)-1-{4-[Bis-(4-fluoro-phenyl)-methyl]-piperazin-1-yl}-2-(cyclohexyl-methyl-amino)-4-methyl-pentan-1-one] | 500 nM | 700 nM | 0% | 0% | – | – | – | – | –
CC(C)CCN(C)[C@@H](CC(C)C)C(=O)N1CCN(C(c2ccc(F)cc2)c2ccc(F)cc2)CC1 [Example 46, 1-{4-[Bis-(4-fluoro-phenyl)-methyl]-piperazin-1-yl}-4-methyl-2-[methyl-(3-methyl-butyl)-amino]-pentan-1-one dihydrochloride] | 1800 nM | 330 nM | – | – | 80% | 20% | – | – | –
CC(C)C[C@H](NC(=O)N1CCCCCC1)C(=O)N1CCN(C(c2ccccc2)c2ccccc2)CC1 [Example 48, (S)-Azepane-1-carboxylic acid [1-(4-benzhydryl-piperazine-1-carbonyl)-3-methyl-butyl]-amide] | 1700 nM | 1200 nM | – | – | – | – | 66 to 74 °C | – | –
CC(C)C[C@H](NC(=O)OC(C)(C)C)C(=O)N1CCN(C(c2ccc(F)cc2)c2ccc(F)cc2)CC1 [Example 50, (S)-(1-{4-[Bis-(4-fluoro-phenyl)-methyl]-piperazine-1-carbonyl}-3-methyl-butyl)-carbamic acid tert-butyl ester] | 950 nM | 550 nM | – | – | – | – | 59 to 66 °C | – | –
CC(C)(C)OC(=O)N[C@@H](Cc1ccccc1)C(=O)N1CCN(C(c2ccc(F)cc2)c2ccc(F)cc2)CC1 [Example 51, (S)-(1-Benzyl-2-{4-[bis-(4-fluoro-phenyl)-methyl]-piperazin-1-yl}-2-oxo-ethyl)-carbamic acid tert-butyl ester] | 710 nM | 250 nM | – | – | – | – | 54 to 74 °C | – | –
N[C@@H](Cc1ccccc1)C(=O)N1CCN(C(c2ccc(F)cc2)c2ccc(F)cc2)CC1 [Example 52, (S)-2-Amino-1-(4-[bis-(4-fluoro-phenyl)-methyl]-piperazin-1-yl}-3-phenyl-propan-1-one] | 430 nM | – | 100% | 80% | – | – | – | 23% | 99%
CC(C)C[C@H](N)C(=O)N1CCN(C(c2ccc(F)cc2)c2ccc(F)cc2)CC1 [Example 53, (S)-2-Amino-1-{4-[bis-(4-fluoro-phenyl)-methyl]-piperazin-1-yl}-4-methyl-pentan-1-one] | 420 nM | – | – | – | – | – | 61 to 68 °C | 22% | 78%
CC(C)N[C@@H](Cc1ccccc1)C(=O)N1CCN(C(c2ccc(F)cc2)c2ccc(F)cc2)CC1 [Example 54, (S)-1-{4-[Bis-(4-fluoro-phenyl)-methyl]-piperazin-1-yl}-2-isopropylamino-3-phenyl-propan-1-one] | 1300 nM | – | – | – | – | – | 45 to 58 °C | 25% | 99%
CC(C)CCN[C@@H](Cc1ccccc1)C(=O)N1CCN(C(c2ccc(F)cc2)c2ccc(F)cc2)CC1.Cl [Example 55, (S)-1-{4-[Bis-(4-fluoro-phenyl)-methyl]-piperazin-1-yl}-2-(3-methyl-butylamino)-3-phenyl-propan-1-one dihydrochloride] | 940 nM | – | – | – | – | – | 172 to 186 °C | – | 104%
CC(C)CCN(CCC(C)C)[C@@H](Cc1ccccc1)C(=O)N1CCN(C(c2ccc(F)cc2)c2ccc(F)cc2)CC1.Cl [Example 56, (S)-1-{4-[Bis-(4-fluoro-phenyl)-methyl]-piperazin-1-yl}-2-[bis-(3-methyl-butyl)-amino]-3-phenyl-propan-1-one dihydrochloride] | > 3000 nM | – | – | – | – | – | 139 to 181 °C | 16% | 37%
CC(C)C[C@@H](C(=O)N1CCN(C(c2ccc(F)cc2)c2ccc(F)cc2)CC1)N(Cc1ccc(OC(C)(C)C)cc1)Cc1ccc(OC(C)(C)C)cc1 [Example 57, (S)-2-[Bis-(4-tert-butoxy-benzyl)-amino]-1-{4-[bis-(4-fluoro-phenyl)-methyl]-piperazin-1-yl}-4-methyl-pentan-1-one] | > 3000 nM | – | – | – | – | – | 62 to 67 °C | – | 7%
CC(C)C[C@@H](C(=O)N1CCN(C(c2ccc(F)cc2)c2ccc(F)cc2)CC1)N(Cc1ccc(C(C)(C)C)cc1)Cc1ccc(C(C)(C)C)cc1 [Example 59, (S)-2-[Bis-(4-tert-butyl-benzyl)-amino]-1-{-4-[bis-(4-fluoro-phenyl)-methyl]-piperazin-1-yl}-4-methyl-pentan-1-one] | > 3000 nM | – | – | – | – | – | 78 to 86 °C | -5% | 2%
COc1cc(CN[C@@H](CC(C)C)C(=O)N2CCN(C(c3ccc(F)cc3)c3ccc(F)cc3)CC2)cc(OC)c1OC [Example 60, (S)-1-{4-[Bis-(4-fluoro-phenyl)-methyl]-piperazin-1-yl}-4-methyl-2-(3,4,5-trimethoxy-benzylamino)-pentan-1-one] | 220 nM | – | – | – | – | – | 58 to 62 °C | 26% | 95%
O=C([C@H](Cc1ccccc1)NC1CCCCC1)N1CCN(C(c2ccc(F)cc2)c2ccc(F)cc2)CC1 [Example 61, (S)-1-{4-[Bis-(4-fluoro-phenyl)-methyl]-piperazin-1-yl}-2-cyclohexylamino-3-phenyl-propan-1-one] | 1700 nM | – | – | – | – | – | 60 to 64 °C | 42% | 102%
